Assay results: ChEMBL document CHEMBL3885881, “DrugMatrix”

Species on record: Rattus norvegicus
Assay: DrugMatrix - Regimen: Daily Repeat
Assay type: toxicity, organism-based, Sprague-Dawley
Parameters: regimen Daily Repeat, gender Male, age 6-8 weeks
Details: in vivo, po, route oral GAVAGE, vehicle .5 % CMC; for ABSOLUTE BASOPHIL / ABSOLUTE EOSINOPHIL / ABSOLUTE LYMPHOCYTE / ABSOLUTE MONOCYTE / ABSOLUTE SEGMENTED NEUTROPHIL / BASOPHIL / EOSINOPHIL / ERYTHROCYTE COUNT / HEMATOCRIT / HEMOGLOBIN / LEUKOCYTE COUNT / LYMPHOCYTE / MEAN CORPUSCULAR HEMOGLOBIN / MEAN CORPUSCULAR HEMOGLOBIN CONCENTRATION / MEAN CORPUSCULAR VOLUME / MONOCYTE / NEUTROPHIL / NUCLEATED RED BLOOD CELLS / PLATELET COUNT: tissue Blood; for ALANINE AMINOTRANSFERASE / ALBUMIN / ALKALINE PHOSPHATASE / ASPARTATE AMINOTRANSFERASE / BLOOD UREA NITROGEN / CARBON DIOXIDE / CHLORIDE / CHOLESTEROL / CREATINE PHOSPHOKINASE / CREATININE / GLUCOSE / LIPASE / PHOSPHORUS / POTASSIUM / SODIUM / TOTAL BILIRUBIN / TOTAL PROTEIN / URIC ACID: tissue Plasma
[1] = 0.3 mg/kg, 72 h, dose level High, time 3 day
[2] = 0.3 mg/kg, 120 h, dose level High, time 5 day
[3] = […], 72 h, dose 0.014 mg/Kg, dose level Low, time 3 day
[4] = […], 120 h, dose 0.014 mg/Kg, dose level Low, time 5 day

For COc1cc2c(c3oc(=O)c4c(c13)CCC4=O)[C@@H]1C=CO[C@@H]1O2 [AFLATOXIN], the “ABSOLUTE BASOPHIL” value [1] was 0 CELLS/uL, the “ABSOLUTE EOSINOPHIL” value [1] was 214.67 CELLS/uL and the “ABSOLUTE LYMPHOCYTE” value [1] was 14943 CELLS/uL. For the same compound, the “ABSOLUTE MONOCYTE” value [1] was 279 CELLS/uL, the “ABSOLUTE SEGMENTED NEUTROPHIL” value [1] was 1230 CELLS/uL and the BASOPHIL [1] was 0%. For the same compound, the EOSINOPHIL [1] was 1.33%, the “ERYTHROCYTE COUNT” value [1] was 5.62 x10E6/uL and the HEMATOCRIT [1] was 35.63%. For the same compound, the HEMOGLOBIN [1] was 13.67 G/DL, the “LEUKOCYTE COUNT” value [1] was 16.67 x10E3/uL and the LYMPHOCYTE [1] was 89.67%. The “MEAN CORPUSCULAR HEMOGLOBIN” value [1] was 24.33 pg, the “MEAN CORPUSCULAR HEMOGLOBIN CONCENTRATION” value [1] was 38.33 G/DL and the “MEAN CORPUSCULAR VOLUME” value [1] was 63.4 fL. For the same compound, the MONOCYTE [1] was 1.67%, the NEUTROPHIL [1] was 7.33% and the “NUCLEATED RED BLOOD CELLS” value [1] was 0.33 /100WBC. The “PLATELET COUNT” value [1] was 1408.33 x10E3/uL, the “ALANINE AMINOTRANSFERASE” value [1] was 50 u/L and the ALBUMIN [1] was 4.07 G/DL. The “ALKALINE PHOSPHATASE” value [1] was 424 u/L, the “ASPARTATE AMINOTRANSFERASE” value [1] was 109.33 u/L and the “BLOOD UREA NITROGEN” value [1] was 15.67 mg/dL. The “CARBON DIOXIDE” value [1] was 24.33 mmol/L, the CHLORIDE [1] was 104 MEQ/L and the CHOLESTEROL [1] was 59.67 mg/dL. For the same compound, the “CREATINE PHOSPHOKINASE” value [1] was 568.33 u/L, the CREATININE [1] was 0.14 mg/dL and the GLUCOSE [1] was 152.67 mg/dL. For the same compound, the LIPASE [1] was 8.67 u/L, the PHOSPHORUS [1] was 13 mg/dL and the POTASSIUM [1] was 6.95 MEQ/L. The SODIUM [1] was 144.7 MEQ/L, the “TOTAL BILIRUBIN” value [1] was 0.23 mg/dL and the “TOTAL PROTEIN” value [1] was 5.27 G/DL. For the same compound, the “URIC ACID” value [1] was 1.73 mg/dL, the “ABSOLUTE BASOPHIL” value [2] was 0 CELLS/uL and the “ABSOLUTE EOSINOPHIL” value [2] was 83.33 CELLS/uL. For the same compound, the “ABSOLUTE LYMPHOCYTE” value [2] was 13811.33 CELLS/uL, the “ABSOLUTE MONOCYTE” value [2] was 454 CELLS/uL and the “ABSOLUTE SEGMENTED NEUTROPHIL” value [2] was 784.67 CELLS/uL. For the same compound, the BASOPHIL [2] was 0%, the EOSINOPHIL [2] was 0.67% and the “ERYTHROCYTE COUNT” value [2] was 5.95 x10E6/uL. The HEMATOCRIT [2] was 36.77%, the HEMOGLOBIN [2] was 14.07 G/DL and the “LEUKOCYTE COUNT” value [2] was 15.13 x10E3/uL. For the same compound, the LYMPHOCYTE [2] was 91%, the “MEAN CORPUSCULAR HEMOGLOBIN” value [2] was 23.63 pg and the “MEAN CORPUSCULAR HEMOGLOBIN CONCENTRATION” value [2] was 38.23 G/DL. For the same compound, the “MEAN CORPUSCULAR VOLUME” value [2] was 61.8 fL, the MONOCYTE [2] was 3% and the NEUTROPHIL [2] was 5.33%. For the same compound, the “NUCLEATED RED BLOOD CELLS” value [2] was 0 /100WBC, the “PLATELET COUNT” value [2] was 1425.67 x10E3/uL and the “ALANINE AMINOTRANSFERASE” value [2] was 64.67 u/L. For the same compound, the ALBUMIN [2] was 4.1 G/DL, the “ALKALINE PHOSPHATASE” value [2] was 290.33 u/L and the “ASPARTATE AMINOTRANSFERASE” value [2] was 102.33 u/L. For the same compound, the “BLOOD UREA NITROGEN” value [2] was 17.33 mg/dL, the “CARBON DIOXIDE” value [2] was 27 mmol/L and the CHLORIDE [2] was 105.5 MEQ/L. The CHOLESTEROL [2] was 48 mg/dL, the “CREATINE PHOSPHOKINASE” value [2] was 345.67 u/L and the CREATININE [2] was 0.19 mg/dL. The GLUCOSE [2] was 158.67 mg/dL, the LIPASE [2] was 9 u/L and the PHOSPHORUS [2] was 12.27 mg/dL. The POTASSIUM [2] was 5.92 MEQ/L, the SODIUM [2] was 147.5 MEQ/L and the “TOTAL BILIRUBIN” value [2] was 0.13 mg/dL. The “TOTAL PROTEIN” value [2] was 5.53 G/DL, the “URIC ACID” value [2] was 1.93 mg/dL and the “ABSOLUTE BASOPHIL” value [3] was 0 CELLS/uL. The “ABSOLUTE EOSINOPHIL” value [3] was 94 CELLS/uL, the “ABSOLUTE LYMPHOCYTE” value [3] was 13843.33 CELLS/uL and the “ABSOLUTE MONOCYTE” value [3] was 261.67 CELLS/uL. The “ABSOLUTE SEGMENTED NEUTROPHIL” value [3] was 1234.33 CELLS/uL, the BASOPHIL [3] was 0% and the EOSINOPHIL [3] was 0.67%. The “ERYTHROCYTE COUNT” value [3] was 5.21 x10E6/uL, the HEMATOCRIT [3] was 33% and the HEMOGLOBIN [3] was 12.47 G/DL. For the same compound, the “LEUKOCYTE COUNT” value [3] was 15.43 x10E3/uL, the LYMPHOCYTE [3] was 89.67% and the “MEAN CORPUSCULAR HEMOGLOBIN” value [3] was 23.93 pg. For the same compound, the “MEAN CORPUSCULAR HEMOGLOBIN CONCENTRATION” value [3] was 37.8 G/DL, the “MEAN CORPUSCULAR VOLUME” value [3] was 63.23 fL and the MONOCYTE [3] was 1.67%. The NEUTROPHIL [3] was 8%, the “NUCLEATED RED BLOOD CELLS” value [3] was 0 /100WBC and the “PLATELET COUNT” value [3] was 1257 x10E3/uL. For the same compound, the “ALANINE AMINOTRANSFERASE” value [3] was 47.67 u/L, the ALBUMIN [3] was 4.1 G/DL and the “ALKALINE PHOSPHATASE” value [3] was 302.67 u/L. The “ASPARTATE AMINOTRANSFERASE” value [3] was 99 u/L, the “BLOOD UREA NITROGEN” value [3] was 16.33 mg/dL and the “CARBON DIOXIDE” value [3] was 25.33 mmol/L. For the same compound, the CHLORIDE [3] was 103.33 MEQ/L, the CHOLESTEROL [3] was 64.67 mg/dL and the “CREATINE PHOSPHOKINASE” value [3] was 408 u/L. The CREATININE [3] was 0.21 mg/dL, the GLUCOSE [3] was 142.33 mg/dL and the LIPASE [3] was 9 u/L. It also gave a PHOSPHORUS [3] of 12.17 mg/dL, a POTASSIUM [3] of 6.42 MEQ/L and an SODIUM [3] of 143.57 MEQ/L. The “TOTAL BILIRUBIN” value [3] was 0.2 mg/dL, the “TOTAL PROTEIN” value [3] was 5.47 G/DL and the “URIC ACID” value [3] was 1.47 mg/dL. For the same compound, the “ABSOLUTE BASOPHIL” value [4] was 0 CELLS/uL, the “ABSOLUTE EOSINOPHIL” value [4] was 37.67 CELLS/uL and the “ABSOLUTE LYMPHOCYTE” value [4] was 14048 CELLS/uL. For the same compound, the “ABSOLUTE MONOCYTE” value [4] was 191.67 CELLS/uL, the “ABSOLUTE SEGMENTED NEUTROPHIL” value [4] was 1122.67 CELLS/uL and the BASOPHIL [4] was 0%. The EOSINOPHIL [4] was 0.33%, the “ERYTHROCYTE COUNT” value [4] was 5.76 x10E6/uL and the HEMATOCRIT [4] was 35.83%. For the same compound, the HEMOGLOBIN [4] was 13.37 G/DL, the “LEUKOCYTE COUNT” value [4] was 15.4 x10E3/uL and the LYMPHOCYTE [4] was 91%. The “MEAN CORPUSCULAR HEMOGLOBIN” value [4] was 23.2 pg, the “MEAN CORPUSCULAR HEMOGLOBIN CONCENTRATION” value [4] was 37.3 G/DL and the “MEAN CORPUSCULAR VOLUME” value [4] was 62.2 fL. For the same compound, the MONOCYTE [4] was 1.33%, the NEUTROPHIL [4] was 7.33% and the “NUCLEATED RED BLOOD CELLS” value [4] was 1.33 /100WBC. The “PLATELET COUNT” value [4] was 1353 x10E3/uL, the “ALANINE AMINOTRANSFERASE” value [4] was 48.33 u/L and the ALBUMIN [4] was 4.3 G/DL. The “ALKALINE PHOSPHATASE” value [4] was 352.33 u/L, the “ASPARTATE AMINOTRANSFERASE” value [4] was 90.33 u/L and the “BLOOD UREA NITROGEN” value [4] was 19.67 mg/dL. For the same compound, the “CARBON DIOXIDE” value [4] was 26.33 mmol/L, the CHLORIDE [4] was 105.67 MEQ/L and the CHOLESTEROL [4] was 63.33 mg/dL. For the same compound, the “CREATINE PHOSPHOKINASE” value [4] was 486.67 u/L, the CREATININE [4] was 0.21 mg/dL and the GLUCOSE [4] was 164.67 mg/dL. The LIPASE [4] was 8.33 u/L, the PHOSPHORUS [4] was 12.6 mg/dL and the POTASSIUM [4] was 6.34 MEQ/L. For the same compound, the SODIUM [4] was 146.9 MEQ/L, the “TOTAL BILIRUBIN” value [4] was 0.2 mg/dL and the “TOTAL PROTEIN” value [4] was 6.03 G/DL. For the same compound, the “URIC ACID” value [4] was 1.93 mg/dL.
